According to ChEMBL document CHEMBL1148143, “Globulixanthones A and B, two new cytotoxic xanthones with isoprenoid groups from the root bark of Symphonia globulifera” (J Nat Prod, 2002):
In brackets after ≈: the same amount, converted by molar mass.

Test system: KB
Assay: Cytotoxicity against human KB cells
Assay type: functional, cell-based

SMILES	IC50 [µg/mL]
C=C(C)/C=C/c1cc2c(=O)c3c(O)cccc3oc2c(OC)c1O [GLOBULIXANTHONE A]	2.15 (≈ 6.63 µM)
CC(C)=CCCC1(C)C=Cc2c(cc(O)c3oc4cccc(O)c4c(=O)c23)O1 (configuration not stated) [GLOBULIXANTHONE B]	1.78 (≈ 4.7 µM)
